Our source for the Ki values is ChEMBL document CHEMBL4311986, “Synthesis and biological evaluation of new multi-target 3-(1H-indol-3-yl)pyrrolidine-2,5-dione derivatives with potential antidepressant effect” (Eur J Med Chem, 2019).

The structures appear in SMILES notation.

The target of test [1] is T1, 5-hydroxytryptamine receptor 1A (Homo sapiens, UniProt P08908).
T1 sequence (P08908 whole entry): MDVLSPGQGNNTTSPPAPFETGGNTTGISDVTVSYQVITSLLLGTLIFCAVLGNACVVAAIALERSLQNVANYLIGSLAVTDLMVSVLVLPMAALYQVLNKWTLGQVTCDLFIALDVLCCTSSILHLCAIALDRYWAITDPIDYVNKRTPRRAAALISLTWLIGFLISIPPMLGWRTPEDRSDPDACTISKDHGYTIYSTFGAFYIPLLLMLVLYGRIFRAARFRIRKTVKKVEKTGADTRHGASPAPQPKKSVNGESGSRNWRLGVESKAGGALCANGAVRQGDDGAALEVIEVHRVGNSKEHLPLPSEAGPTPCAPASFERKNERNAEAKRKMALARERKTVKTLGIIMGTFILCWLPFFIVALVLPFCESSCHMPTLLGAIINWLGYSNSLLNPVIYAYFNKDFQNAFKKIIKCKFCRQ
Nature of the test: biochemical.

Test [2] concerns the target Sodium-dependent serotonin transporter (Homo sapiens, UniProt P31645). Nature of the test: Displacement of [3H]-imipramine from human serotonin transporter expressed in HEK293 cells membranes incubated for 30 mins by microbeta scintillation counting analysis. The class given is cell membranes. On the technique in general: In a radioligand displacement assay an active substance lowers the binding of a labelled ligand.

For test [3], the target named is 5-hydroxytryptamine receptor 7 (Homo sapiens, UniProt P34969). The test is described as follows: Displacement of [3H]-5-CT from human 5HT7 receptor expressed in HEK293 cells incubated for 1 hr by liquid scintillation counting method. It counts as cell-based.
5-hydroxytryptamine receptor 7, sequence (P34969 whole entry): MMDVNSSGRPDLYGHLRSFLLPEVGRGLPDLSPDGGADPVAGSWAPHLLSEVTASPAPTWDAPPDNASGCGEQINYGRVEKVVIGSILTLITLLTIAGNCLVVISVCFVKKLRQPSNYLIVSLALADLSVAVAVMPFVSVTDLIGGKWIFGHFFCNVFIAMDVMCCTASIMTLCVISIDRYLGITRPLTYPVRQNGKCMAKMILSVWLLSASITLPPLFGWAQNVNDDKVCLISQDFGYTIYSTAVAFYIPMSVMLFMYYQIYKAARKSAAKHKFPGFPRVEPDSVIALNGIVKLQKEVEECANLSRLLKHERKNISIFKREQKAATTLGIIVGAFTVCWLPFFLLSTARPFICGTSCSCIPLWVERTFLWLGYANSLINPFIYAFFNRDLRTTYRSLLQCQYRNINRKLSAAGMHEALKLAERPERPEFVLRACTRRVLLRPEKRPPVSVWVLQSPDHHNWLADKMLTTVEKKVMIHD

Sodium-dependent serotonin transporter, sequence (P31645 whole entry): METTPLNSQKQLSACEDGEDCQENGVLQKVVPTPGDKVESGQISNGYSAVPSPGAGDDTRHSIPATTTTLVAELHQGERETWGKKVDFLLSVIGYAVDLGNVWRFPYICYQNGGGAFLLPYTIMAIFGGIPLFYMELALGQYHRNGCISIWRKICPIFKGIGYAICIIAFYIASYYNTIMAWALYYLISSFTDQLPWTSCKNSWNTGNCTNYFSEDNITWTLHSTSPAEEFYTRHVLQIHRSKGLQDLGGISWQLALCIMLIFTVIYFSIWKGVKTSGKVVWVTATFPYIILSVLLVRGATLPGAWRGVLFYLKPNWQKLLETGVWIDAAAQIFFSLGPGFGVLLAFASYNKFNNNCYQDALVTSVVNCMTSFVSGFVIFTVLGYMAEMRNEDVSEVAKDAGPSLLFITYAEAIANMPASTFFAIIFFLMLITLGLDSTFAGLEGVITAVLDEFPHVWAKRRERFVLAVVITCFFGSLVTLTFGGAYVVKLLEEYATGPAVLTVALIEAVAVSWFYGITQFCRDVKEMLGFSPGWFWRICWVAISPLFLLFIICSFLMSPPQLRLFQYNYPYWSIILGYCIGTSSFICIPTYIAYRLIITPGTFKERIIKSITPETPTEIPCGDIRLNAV

On to `O=C1CC(c2c[nH]c3ccccc23)C(=O)N1CCCCN1CCCC(c2c[nH]c3ccccc23)C1` (centres undefined), for which the Ki in test [1] came out at 122 nM. This lies in the sub-micromolar range.

In the case of `COc1ccc2[nH]cc(C3CCN(CCN4C(=O)CC(c5c[nH]c6ccc(OC)cc56)C4=O)CC3)c2c1` (centres undefined), the Ki in test [1] was found to be 240 nM; in test [2], 63 nM.

With `COc1ccc2[nH]cc(C3CCN(CCCN4C(=O)CC(c5c[nH]c6ccc(F)cc56)C4=O)CC3)c2c1` (centres undefined), the Ki is 157 nM in test [1] and 156 nM in test [2]. For `O=C1CC(c2c[nH]c3ccc(F)cc23)C(=O)N1CCCN1CCC(c2c[nH]c3ccc(F)cc23)CC1` (centres undefined), the Ki stood at 336 nM in test [1] and 140 nM in test [2]. As for `CN(C)C(=O)N[C@H]1CC[C@H](CCN2CCN(c3cccc(Cl)c3Cl)CC2)CC1` [CARIPRAZINE], the affinity in test [3], expressed as Ki, was 111 nM. This counts as sub-micromolar.

Take `O=C1CC(c2c[nH]c3ccc(F)cc23)C(=O)N1CCN1CCC(c2c[nH]c3ccccc23)CC1` (centres undefined): the Ki in test [1] is 320 nM; in test [2], 102 nM. The like results for `O=C1CC(c2c[nH]c3ccc(F)cc23)C(=O)N1CCN1CCC(c2c[nH]c3ccc(F)cc23)CC1` (centres undefined) were, in that order, 700 nM and 314 nM.

Regarding `COc1ccc2[nH]cc(C3CCN(CCCN4C(=O)CC(c5c[nH]c6ccc(OC)cc56)C4=O)CC3)c2c1` (centres undefined), the inhibition constant Ki in test [1] was found to be 68.7 nM; in test [2], 111 nM. The like results for `O=C1CC(c2c[nH]c3ccc(F)cc23)C(=O)N1CCCN1CCC(c2c[nH]c3ccccc23)CC1` (centres undefined) were, in that order, 143 nM and 151 nM. With `COc1ccc2[nH]cc(C3CCN(CCN4C(=O)CC(c5c[nH]c6ccc(F)cc56)C4=O)CC3)c2c1` (centres undefined), the Ki was > 5000 nM in test [1] and 1310 nM in test [2]. `COc1ccc2[nH]cc(C3CCCN(CCCCN4C(=O)CC(c5c[nH]c6ccc(OC)cc56)C4=O)C3)c2c1` (centres undefined) registered a Ki in test [1] of 52 nM. For `COc1ccc2[nH]cc(C3CCCN(CCCCN4C(=O)CC(c5c[nH]c6ccccc56)C4=O)C3)c2c1` (centres undefined), the Ki in test [1] came out at 78 nM.

Consider `O=C1CC(c2c[nH]c3ccccc23)C(=O)N1CCCCN1CCCC(c2c[nH]c3ccc(F)cc23)C1` (centres undefined), for which the Ki in test [1] turned out to be 183 nM. Consider `COc1ccc2[nH]cc(C3CC(=O)N(CCN4CCC(c5c[nH]c6ccc(F)cc56)CC4)C3=O)c2c1` (centres undefined), for which the Ki in test [1] was found to be 222 nM; in test [2], 221 nM. The like results for `COc1ccc2[nH]cc(C3CC(=O)N(CCCN4CCC(c5c[nH]c6ccccc56)CC4)C3=O)c2c1` (centres undefined) were, in that order, 204 nM and 523 nM. The like results for `COc1ccc2[nH]cc(C3CC(=O)N(CCN4CCC(c5c[nH]c6ccccc56)CC4)C3=O)c2c1` (centres undefined) were, in that order, 48.7 nM and 142 nM.

Regarding `COc1ccc2[nH]cc(C3CC(=O)N(CCCN4CCC(c5c[nH]c6ccc(F)cc56)CC4)C3=O)c2c1` (centres undefined), the Ki in test [1] amounted to 246 nM; in test [2] it was 30 nM.

By Ki is commonly meant the equilibrium dissociation constant of an inhibitor or competing ligand from its target. Lower therefore signals tighter binding.
